Laboratory results published in patent publication US12600726B2, “Antagonists of the muscarinic acetylcholine receptor M4” (Vanderbilt University, priority 2017, dated 2026).
pIC50: −log10 of the molar value.

How the values were obtained:
[1] = biological target: T1, Rat M4 (Rattus norvegicus, UniProt P08485); assay: mAChR M4 cell-based functional calcium flux assay (rat M4/Gqi5/CHO cells); settings: for Emin (rat M4): % ACh maximum at 30 μM; for pIC50: decrease of the response to an EC80 concentration of acetylcholine
T1 construct: expressed in transfected cells; host or cells: CHO-K1 (ATCC), stably expressing M4 and Gqi5
T1 sequence (P08485 1-478): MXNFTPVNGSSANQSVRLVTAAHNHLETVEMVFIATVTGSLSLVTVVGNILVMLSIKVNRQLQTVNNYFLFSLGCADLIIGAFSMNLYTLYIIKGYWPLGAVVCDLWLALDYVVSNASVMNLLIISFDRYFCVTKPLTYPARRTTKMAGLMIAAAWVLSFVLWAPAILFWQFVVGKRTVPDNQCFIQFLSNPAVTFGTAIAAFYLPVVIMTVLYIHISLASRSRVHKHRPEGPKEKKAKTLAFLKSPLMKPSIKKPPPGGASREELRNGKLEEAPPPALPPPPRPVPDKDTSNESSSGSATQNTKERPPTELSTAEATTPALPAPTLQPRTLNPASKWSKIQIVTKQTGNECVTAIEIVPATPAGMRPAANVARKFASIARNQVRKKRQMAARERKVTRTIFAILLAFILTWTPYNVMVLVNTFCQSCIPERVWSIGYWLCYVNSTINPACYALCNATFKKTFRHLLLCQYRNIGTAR
Method in brief: (§1)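 CHO-K1 cells stably co-expressing M4 of the given species with chimeric Gqi5 were loaded with Fluo-4 AM and read for calcium flux. Compounds (10-point, 1:3 dilutions) were added first, followed by an acetylcholine EC20 at 143 s and an EC80 at 268 s. IC50 reflects the concentration-dependent fall in the EC80 response, fitted with a four-parameter logistic.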

[2] = biological target: T2, Human M4 (Homo sapiens, UniProt P08173); assay: mAChR M4 cell-based functional calcium flux assay (human M4/Gqi5/CHO cells); settings: for Emin (human M4): % ACh maximum at 30 μM; for pIC50: decrease of the response to an EC80 concentration of acetylcholine
T2 construct: expressed in transfected cells; host or cells: CHO-K1 (ATCC), stably expressing M4 and Gqi5
T2 sequence (P08173 1-479): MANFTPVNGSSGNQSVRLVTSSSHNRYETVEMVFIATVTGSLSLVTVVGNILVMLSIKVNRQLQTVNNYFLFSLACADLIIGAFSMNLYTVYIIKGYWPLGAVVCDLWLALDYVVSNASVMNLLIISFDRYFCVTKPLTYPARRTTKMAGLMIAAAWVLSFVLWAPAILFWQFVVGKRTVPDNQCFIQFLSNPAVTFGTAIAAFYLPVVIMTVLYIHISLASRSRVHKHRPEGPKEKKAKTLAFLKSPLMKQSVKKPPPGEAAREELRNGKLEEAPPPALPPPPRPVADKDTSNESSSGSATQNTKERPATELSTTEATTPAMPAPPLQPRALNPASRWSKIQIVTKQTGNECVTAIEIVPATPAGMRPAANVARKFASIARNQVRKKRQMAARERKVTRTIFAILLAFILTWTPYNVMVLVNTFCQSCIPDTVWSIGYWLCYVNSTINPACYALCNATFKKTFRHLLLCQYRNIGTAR
Method in brief: as §1

Row | Emin (rat M4) [1] [%] | pIC50 [1] | Emin (human M4) [2] [%] | pIC50 [2] | IC50 ([1]; cells printed in μM, decrease of the EC80 acetylcholine response) [µM] | SMILES
1 | 3.84 | 6.27 | 3.30 | 7.16 | – | Cc1nn(C)cc1-c1ccc(NCC2CC23CCN(CC24CC5CC(CC(C5)C2)C4)CC3)nn1 (stereo not shown) [Compound 57, N-[[6-(1-adamantylmethyl)-6-azaspiro[2.5]octan-2-yl]methyl]-6-(1,3-dimethylpyrazol-4-yl)pyridazin-3-amine]
2 | 11.8 | 5.44 | 4.18 | 6.42 | – | Cc1nn(C)cc1-c1ccc(NCC2CC23CCN(Cc2ccccc2)CC3)nn1 (stereo not shown) [Compound 58, N-[(6-benzyl-6-azaspiro[2.5]octan-2-yl)methyl]-6-(1,3-dimethylpyrazol-4-yl)pyridazin-3-amine]
3 | 4.58 | 5.73 | 3.31 | 6.27 | – | Cc1nn(C)cc1-c1ccc(NCC2CC23CCN(CC(c2ccccc2)c2ccccc2)CC3)nn1 (stereo not shown) [Compound 59, 6-(1,3-dimethylpyrazol-4-yl)-N-[[6-(2,2-diphenylethyl)-6-azaspiro[2.5]octan-2-yl]methyl]pyridazin-3-amine]
4 | 12.3 | 5.72 | 3.93 | 6.94 | – | Cc1nn(C)cc1-c1ccc(NCC2CC23CCN(CC2CCCOC2)CC3)nn1 (stereo not shown) [Compound 60, 6-(1,3-dimethylpyrazol-4-yl)-N-[[6-(tetrahydropyran-3-ylmethyl)-6-azaspiro[2.5]octan-2-yl]methyl]pyridazin-3-amine]
5 | 5.67 | 6.70 | 3.54 | 7.94 | – | Cc1nn(C)cc1-c1ccc(NCC2CC23CCN(CC2CCOCC2)CC3)nn1 (stereo not shown) [Compound 61, 6-(1,3-dimethylpyrazol-4-yl)-N-[[6-(tetrahydropyran-4-ylmethyl)-6-azaspiro[2.5]octan-2-yl]methyl]pyridazin-3-amine]
6 | 19.9 | 5.35 | 4.23 | 6.57 | – | Cc1cccnc1CN1CCC2(CC1)CC2CNc1ccc(-c2cn(C)nc2C)nn1 (stereo not shown) [Compound 62, 6-(1,3-dimethylpyrazol-4-yl)-N-[[6-[(3-methyl-2-pyridyl)methyl]-6-azaspiro[2.5]octan-2-yl]methyl]pyridazin-3-amine]
7 | 19.9 | – | 4.53 | 6.27 | > 10 | Cc1nn(C)cc1-c1ccc(NCC2CC23CCN(Cc2ncccc2C(F)(F)F)CC3)nn1 (stereo not shown) [Compound 63, 6-(1,3-dimethylpyrazol-4-yl)-N-[[6-[[3-(trifluoromethyl)-2-pyridyl]methyl]-6-azaspiro[2.5]octan-2-yl]methyl]pyridazin-3-amine]
8 | 3.68 | 7.48 | 2.90 | 7.96 | – | CC(C)(C)CCN1CCC2(CC1)C[C@H]2CNc1ccc(-c2cc(F)ccc2Cl)nn1 [Compound 64, (R)-6-(2-chloro-5-fluoro-phenyl)-N-[[6-(3,3-dimethylbutyl)-6-azaspiro[2.5]octan-2-yl]methyl]pyridazin-3-amine]
9 | 4.33 | 7.09 | 2.62 | 7.90 | – | Fc1ccc(Cl)c(-c2ccc(NC[C@@H]3CC34CCN(CC3CCCCC3)CC4)nn2)c1 [Compound 65, (R)-6-(2-chloro-5-fluoro-phenyl)-N-[[6-(cyclohexylmethyl)-6-azaspiro[2.5]octan-2-yl]methyl]pyridazin-3-amine]
10 | 3.95 | 6.82 | 3.50 | 8.00 | – | CC(C)(C)CCN1CCC2(CC1)C[C@@H]2CNc1ccc(-c2cc(F)ccc2Cl)nn1 [Compound 66, (S)-6-(2-chloro-5-fluoro-phenyl)-N-[[6-(3,3-dimethylbutyl)-6-azaspiro[2.5]octan-2-yl]methyl]pyridazin-3-amine]
11 | 4.48 | 5.82 | 4.04 | 6.31 | – | Fc1ccc(Cl)c(-c2ccc(NCC3CC34CCN(CC3CC5C=CC3C5)CC4)nc2)c1 (stereo not shown) [Compound 68, N-[[6-(5-bicyclo[2.2.1]hept-2-enylmethyl)-6-azaspiro[2.5]octan-2-yl]methyl]-5-(2-chloro-5-fluoro-phenyl)pyridin-2-amine]
12 | 4.18 | 5.74 | 4.09 | 6.13 | – | CC(C)(C)CCN1CCC2(CC1)CC2CNc1ccc(-c2cc(F)ccc2Cl)cn1 (stereo not shown) [Compound 69, 5-(2-chloro-5-fluoro-phenyl)-N-[[6-(3,3-dimethylbutyl)-6-azaspiro[2.5]octan-2-yl]methyl]pyridin-2-amine]
13 | 3.96 | 6.77 | 3.29 | 7.34 | – | Cc1nn(C)cc1-c1ccc(NCC2CC23CCN(CC2CC4C=CC2C4)CC3)nc1 (stereo not shown) [Compound 70, N-[[6-(5-bicyclo[2.2.1]hept-2-enylmethyl)-6-azaspiro[2.5]octan-2-yl]methyl]-5-(1,3-dimethylpyrazol-4-yl)pyridin-2-amine]
14 | 4.72 | 6.08 | 4.74 | 5.90 | – | C1=CC2CC1CC2CN1CCC2(CC1)CC2CNc1ncc(-c2ccccc2)s1 (stereo not shown) [Compound 71, N-[[6-(5-bicyclo[2.2.1]hept-2-enylmethyl)-6-azaspiro[2.5]octan-2-yl]methyl]-5-phenyl-thiazol-2-amine]
15 | 4.86 | 6.11 | 4.42 | 5.90 | – | CC(C)(C)CCN1CCC2(CC1)CC2CNc1ncc(-c2ccccc2)s1 (stereo not shown) [Compound 72, N-[[6-(3,3-dimethylbutyl)-6-azaspiro[2.5]octan-2-yl]methyl]-5-phenyl-thiazol-2-amine]
16 | 9.84 | 5.51 | 8.96 | 5.18 | – | c1ccc(-c2cnc(NCC3CC34CCN(CC3CCOCC3)CC4)s2)cc1 (stereo not shown) [Compound 73, 5-phenyl-N-[[6-(tetrahydropyran-4-ylmethyl)-6-azaspiro[2.5]octan-2-yl]methyl]thiazol-2-amine]
17 | 5 | 6.94 | 4 | 7.39 | – | CC(C)(C)CCN1CCC2(CC1)CC2CNc1ccc(N2CCC(F)(F)C2)nn1 (stereo not shown) [Compound 75, 6-(3,3-difluoropyrrolidin-1-yl)-N-((6-(3,3-dimethylbutyl)-6-azaspiro[2.5]octan-1-yl)methyl)pyridazin-3-amine]
18 | 7 | 6.16 | 4 | 7.00 | – | Cc1cnn(C)c1-c1ccc(N(C)CC2CC23CCN(CCC(C)(C)C)CC3)nn1 (stereo not shown) [Compound 76, 6-(1,4-dimethyl-1H-pyrazol-5-yl)-N-((6-(3,3-dimethylbutyl)-6-azaspiro[2.5]octan-1-yl)methyl)-N-methylpyridazin-3-amine]
19 | 5 | 7.86 | 5 | 8.30 | – | CC(C)(C)CCN1CCC2(CC1)CC2CNc1ccc(N2CCOCC2)nn1 (stereo not shown) [Compound 79, N-[[6-(3,3-dimethylbutyl)-6-azaspiro[2.5]octan-2-yl]methyl]-6-morpholino-pyridazin-3-amine]
20 | 3 | 7.03 | 3 | 7.40 | – | CC(C)(C)CCN1CCC2(CC1)CC2CNc1ccc(N2CCC(F)(F)CC2)nn1 (stereo not shown) [Compound 80, 6-(4,4-difluoro-1-piperidyl)-N-[[6-(3,3-dimethylbutyl)-6-azaspiro[2.5]octan-2-yl]methyl]pyridazin-3-amine]
21 | 4 | 6.51 | 4 | 7.07 | – | CC(C)(C)CCN1CCC2(CC1)CC2CNc1ccc(N2CCCC2)nn1 (stereo not shown) [Compound 81, N-[[6-(3,3-dimethylbutyl)-6-azaspiro[2.5]octan-2-yl]methyl]-6-pyrrolidin-1-yl-pyridazin-3-amine]

Row | SMILES | Emin (rat M4) [1] [%] | pIC50 [1] | Emin (human M4) [2] [%] | pIC50 [2] | IC50 ([1]; cells printed in μM, decrease of the EC80 acetylcholine response) [µM]
22 | Fc1ccc(Cl)c(-c2ccc(NC[C@H]3CC34CCN(CC3CCCCC3)CC4)nn2)c1 [Compound 67, (S)-6-(2-chloro-5-fluoro-phenyl)-N-[[6-(cyclohexylmethyl)-6-azaspiro[2.5]octan-2-yl]methyl]pyridazin-3-amine] | 4.36 | 6.28 | 3.66 | 7.56 | –
